Legend:
Assay in all cases: KINOMEscan competition binding
[1] = target: JAK3(JH1domain-catalytic) (Homo sapiens, UniProt P52333); details: read-out: %Inh JAK3(JH1domain-catalytic)
[2] = target: T1, HASPIN (Homo sapiens, UniProt Q8TF76); details: read-out: %Inh HASPIN
T1 sequence (Q8TF76 1-798): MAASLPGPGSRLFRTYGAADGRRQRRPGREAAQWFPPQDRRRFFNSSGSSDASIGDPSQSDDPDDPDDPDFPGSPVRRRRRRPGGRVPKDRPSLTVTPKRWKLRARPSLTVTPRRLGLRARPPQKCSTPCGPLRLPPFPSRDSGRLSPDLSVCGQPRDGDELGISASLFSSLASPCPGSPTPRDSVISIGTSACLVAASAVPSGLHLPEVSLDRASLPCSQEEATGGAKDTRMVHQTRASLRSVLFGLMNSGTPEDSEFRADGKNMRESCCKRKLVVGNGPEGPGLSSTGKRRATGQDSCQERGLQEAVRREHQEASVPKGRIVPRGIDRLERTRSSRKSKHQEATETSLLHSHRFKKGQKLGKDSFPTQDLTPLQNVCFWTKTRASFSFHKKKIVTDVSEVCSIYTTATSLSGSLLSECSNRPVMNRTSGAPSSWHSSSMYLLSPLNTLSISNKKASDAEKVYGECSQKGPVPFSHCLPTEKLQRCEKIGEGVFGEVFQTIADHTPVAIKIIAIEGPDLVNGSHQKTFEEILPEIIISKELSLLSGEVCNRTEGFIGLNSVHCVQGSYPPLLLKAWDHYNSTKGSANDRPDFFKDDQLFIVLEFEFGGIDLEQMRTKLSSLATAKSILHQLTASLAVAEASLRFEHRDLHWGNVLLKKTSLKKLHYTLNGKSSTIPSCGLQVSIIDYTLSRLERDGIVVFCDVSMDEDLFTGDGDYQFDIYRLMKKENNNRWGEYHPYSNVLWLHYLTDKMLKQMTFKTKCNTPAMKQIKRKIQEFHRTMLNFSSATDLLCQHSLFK

[3] = target: GSK3B (Homo sapiens, UniProt P49841); details: read-out: %Inh GSK3B
Chain of GSK3B (P49841 whole entry): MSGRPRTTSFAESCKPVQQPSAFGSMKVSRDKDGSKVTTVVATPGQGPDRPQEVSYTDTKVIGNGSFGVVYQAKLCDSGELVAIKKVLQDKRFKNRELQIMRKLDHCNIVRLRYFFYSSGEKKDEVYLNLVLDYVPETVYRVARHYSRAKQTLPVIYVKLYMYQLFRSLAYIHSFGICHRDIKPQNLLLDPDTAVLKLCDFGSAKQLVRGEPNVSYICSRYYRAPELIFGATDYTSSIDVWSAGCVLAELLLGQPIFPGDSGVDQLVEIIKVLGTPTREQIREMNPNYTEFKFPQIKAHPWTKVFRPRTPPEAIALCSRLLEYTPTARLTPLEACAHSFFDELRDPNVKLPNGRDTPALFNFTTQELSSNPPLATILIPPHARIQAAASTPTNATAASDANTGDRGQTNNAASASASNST

[4] = target: CDK8 (Homo sapiens, UniProt P49336); details: read-out: %Inh CDK8
Chain of CDK8 (P49336 whole entry): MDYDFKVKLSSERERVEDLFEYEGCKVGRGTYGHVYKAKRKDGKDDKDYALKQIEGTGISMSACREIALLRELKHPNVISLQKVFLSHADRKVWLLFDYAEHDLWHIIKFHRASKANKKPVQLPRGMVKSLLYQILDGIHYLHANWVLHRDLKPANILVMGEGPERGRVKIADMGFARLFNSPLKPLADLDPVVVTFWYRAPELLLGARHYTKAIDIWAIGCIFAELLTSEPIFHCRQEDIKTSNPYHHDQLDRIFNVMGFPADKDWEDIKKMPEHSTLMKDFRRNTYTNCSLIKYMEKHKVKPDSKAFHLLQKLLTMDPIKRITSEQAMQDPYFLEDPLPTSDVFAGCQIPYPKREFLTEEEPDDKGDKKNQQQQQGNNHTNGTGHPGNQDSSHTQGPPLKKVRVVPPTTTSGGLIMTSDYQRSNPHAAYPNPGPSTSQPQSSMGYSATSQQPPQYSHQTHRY

[5] = target: T2, EPHA3 (Homo sapiens, UniProt P29320); details: read-out: %Inh EPHA3
T2 sequence (P29320 21-983): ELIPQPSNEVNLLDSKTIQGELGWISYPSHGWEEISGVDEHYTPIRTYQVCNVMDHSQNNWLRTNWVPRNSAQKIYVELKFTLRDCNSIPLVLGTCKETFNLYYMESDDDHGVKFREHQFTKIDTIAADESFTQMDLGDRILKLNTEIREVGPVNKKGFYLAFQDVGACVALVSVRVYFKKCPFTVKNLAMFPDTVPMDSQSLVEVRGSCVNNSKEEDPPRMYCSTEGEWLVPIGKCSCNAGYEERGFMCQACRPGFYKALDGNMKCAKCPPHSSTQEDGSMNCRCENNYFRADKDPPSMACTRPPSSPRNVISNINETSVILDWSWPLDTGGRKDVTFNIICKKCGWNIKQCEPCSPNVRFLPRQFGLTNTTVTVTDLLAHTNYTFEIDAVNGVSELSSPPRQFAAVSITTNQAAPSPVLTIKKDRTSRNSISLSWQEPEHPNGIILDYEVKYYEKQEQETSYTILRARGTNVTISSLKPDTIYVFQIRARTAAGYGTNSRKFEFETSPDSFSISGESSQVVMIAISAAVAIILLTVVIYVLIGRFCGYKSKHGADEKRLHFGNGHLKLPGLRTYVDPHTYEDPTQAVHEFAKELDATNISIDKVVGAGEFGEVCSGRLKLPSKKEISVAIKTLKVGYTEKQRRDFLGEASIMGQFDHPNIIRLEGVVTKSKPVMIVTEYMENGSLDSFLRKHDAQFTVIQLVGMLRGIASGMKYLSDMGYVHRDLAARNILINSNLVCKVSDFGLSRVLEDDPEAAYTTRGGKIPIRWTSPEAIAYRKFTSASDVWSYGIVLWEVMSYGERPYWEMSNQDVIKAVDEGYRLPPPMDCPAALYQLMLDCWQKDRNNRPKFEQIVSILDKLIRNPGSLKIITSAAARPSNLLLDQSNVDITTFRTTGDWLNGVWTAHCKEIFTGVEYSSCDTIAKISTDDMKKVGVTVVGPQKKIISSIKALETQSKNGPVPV

[6] = target: CDK11 (Homo sapiens, UniProt Q9BWU1); details: read-out: %Inh CDK11
Chain of CDK11 (Q9BWU1 whole entry): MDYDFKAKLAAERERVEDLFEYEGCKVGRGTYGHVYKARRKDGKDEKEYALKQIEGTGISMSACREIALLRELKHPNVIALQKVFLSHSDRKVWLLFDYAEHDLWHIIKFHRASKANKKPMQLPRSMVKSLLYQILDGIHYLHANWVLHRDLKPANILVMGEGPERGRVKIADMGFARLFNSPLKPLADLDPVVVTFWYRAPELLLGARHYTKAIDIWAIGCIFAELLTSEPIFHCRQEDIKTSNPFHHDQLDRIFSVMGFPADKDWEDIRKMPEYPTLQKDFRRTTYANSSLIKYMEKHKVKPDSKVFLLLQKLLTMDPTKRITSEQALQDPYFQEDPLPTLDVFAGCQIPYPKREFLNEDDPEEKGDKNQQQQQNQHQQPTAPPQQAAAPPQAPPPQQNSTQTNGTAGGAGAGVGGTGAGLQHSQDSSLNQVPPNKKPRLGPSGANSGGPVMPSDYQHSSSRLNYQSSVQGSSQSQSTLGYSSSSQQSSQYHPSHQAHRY

[7] = target: CDKL3 (Homo sapiens, UniProt Q8IVW4); details: read-out: %Inh CDKL3
Chain of CDKL3 (Q8IVW4 whole entry): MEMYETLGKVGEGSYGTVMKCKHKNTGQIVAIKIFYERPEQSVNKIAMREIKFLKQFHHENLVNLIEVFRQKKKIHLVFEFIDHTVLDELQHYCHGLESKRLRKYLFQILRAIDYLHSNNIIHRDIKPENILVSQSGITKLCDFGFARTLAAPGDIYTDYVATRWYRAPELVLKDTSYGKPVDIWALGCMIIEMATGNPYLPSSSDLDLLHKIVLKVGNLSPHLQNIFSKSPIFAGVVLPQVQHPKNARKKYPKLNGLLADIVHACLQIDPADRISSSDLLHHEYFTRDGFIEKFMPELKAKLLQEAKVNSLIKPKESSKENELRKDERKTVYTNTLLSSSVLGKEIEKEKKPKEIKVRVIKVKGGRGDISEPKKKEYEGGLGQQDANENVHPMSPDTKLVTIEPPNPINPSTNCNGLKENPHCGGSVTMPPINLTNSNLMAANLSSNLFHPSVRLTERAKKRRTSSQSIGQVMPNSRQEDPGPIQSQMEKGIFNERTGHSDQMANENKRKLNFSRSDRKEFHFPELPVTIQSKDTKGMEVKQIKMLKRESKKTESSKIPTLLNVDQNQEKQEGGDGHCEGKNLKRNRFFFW

[8] = target: ACVR2B (Homo sapiens, UniProt Q13705); details: read-out: %Inh ACVR2B
Chain of ACVR2B (Q13705 19-512): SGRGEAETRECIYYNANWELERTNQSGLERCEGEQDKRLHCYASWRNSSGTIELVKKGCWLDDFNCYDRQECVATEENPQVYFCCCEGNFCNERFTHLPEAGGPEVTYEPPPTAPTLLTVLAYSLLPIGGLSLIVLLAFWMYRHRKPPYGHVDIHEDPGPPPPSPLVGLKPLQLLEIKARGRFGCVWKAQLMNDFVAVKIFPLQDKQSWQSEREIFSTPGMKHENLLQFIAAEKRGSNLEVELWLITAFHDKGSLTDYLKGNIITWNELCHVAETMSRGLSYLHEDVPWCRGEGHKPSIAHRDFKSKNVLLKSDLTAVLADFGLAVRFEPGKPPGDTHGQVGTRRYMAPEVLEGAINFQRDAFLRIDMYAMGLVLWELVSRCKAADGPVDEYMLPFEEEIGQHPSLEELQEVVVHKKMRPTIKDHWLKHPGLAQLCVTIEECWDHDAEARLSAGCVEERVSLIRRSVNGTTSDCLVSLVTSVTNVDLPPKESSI

[9] = target: FGFR1 (Homo sapiens, UniProt P11362); details: read-out: %Inh FGFR1
Chain of FGFR1 (P11362 22-822): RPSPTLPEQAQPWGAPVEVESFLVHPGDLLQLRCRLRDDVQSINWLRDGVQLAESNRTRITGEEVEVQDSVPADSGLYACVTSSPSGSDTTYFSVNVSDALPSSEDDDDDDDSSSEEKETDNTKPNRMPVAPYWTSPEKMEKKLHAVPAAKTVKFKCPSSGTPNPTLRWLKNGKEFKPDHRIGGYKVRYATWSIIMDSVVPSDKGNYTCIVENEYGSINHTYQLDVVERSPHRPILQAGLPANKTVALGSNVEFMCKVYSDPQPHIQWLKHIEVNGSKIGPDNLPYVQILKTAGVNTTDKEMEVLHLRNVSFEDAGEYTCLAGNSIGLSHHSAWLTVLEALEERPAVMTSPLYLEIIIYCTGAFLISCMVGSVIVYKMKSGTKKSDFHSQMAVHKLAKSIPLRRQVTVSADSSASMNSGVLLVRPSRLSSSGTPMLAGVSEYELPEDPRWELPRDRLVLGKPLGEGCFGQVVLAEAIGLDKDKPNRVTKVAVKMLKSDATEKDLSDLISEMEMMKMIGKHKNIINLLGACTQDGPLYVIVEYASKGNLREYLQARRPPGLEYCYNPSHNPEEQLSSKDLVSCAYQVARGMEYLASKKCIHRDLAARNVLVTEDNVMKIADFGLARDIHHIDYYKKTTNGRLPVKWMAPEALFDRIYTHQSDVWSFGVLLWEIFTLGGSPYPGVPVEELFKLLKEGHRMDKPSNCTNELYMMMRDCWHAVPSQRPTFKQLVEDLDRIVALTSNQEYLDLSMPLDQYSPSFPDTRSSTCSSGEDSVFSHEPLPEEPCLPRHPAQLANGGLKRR

Chain of JAK3(JH1domain-catalytic) (P52333 813-1124 limits assumed): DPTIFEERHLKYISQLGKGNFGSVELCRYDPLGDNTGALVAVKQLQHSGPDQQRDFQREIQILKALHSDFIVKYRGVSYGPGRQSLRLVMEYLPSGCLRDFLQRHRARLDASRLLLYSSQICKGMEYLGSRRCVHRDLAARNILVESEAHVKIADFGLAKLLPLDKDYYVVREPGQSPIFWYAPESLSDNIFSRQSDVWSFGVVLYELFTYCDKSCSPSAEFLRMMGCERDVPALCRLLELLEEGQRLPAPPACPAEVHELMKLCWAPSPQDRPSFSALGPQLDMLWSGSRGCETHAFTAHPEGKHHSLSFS

Structure (SMILES)	inhibition at 1 µM [1]	inhibition at 1 µM [2]	inhibition at 1 µM [3]	inhibition at 1 µM [4]	inhibition at 1 µM [5]	inhibition at 1 µM [6]	inhibition at 1 µM [7]	inhibition at 1 µM [8]	inhibition at 1 µM [9]
COc1cccc(OC)c1C(=O)Nc1cccc(-c2nn3ccccc3c2-c2ccnc(Nc3cccc(F)c3)n2)c1 [UNC10225310A]	0%	0%	0%	0%	0%	0%	3%	27%	11%
Cc1ccc(NC(=O)Nc2cccc(C(F)(F)F)c2)cc1 [UNC10225187A]	0%	12%	0%	0%	0%	20%	4%	0%	1%
O=c1cc(N2CCOCC2)nc2n(Cc3cccc(Cl)c3Cl)c(C3CC3)nn12 [UNC10225469A]	0%	0%	0%	0%	0%	0%	0%	0%	0%
CS(=O)(=O)Cc1ccc(Nc2nccc(-c3c(-c4cccc(NC(=O)C5CCCCC5)c4)nn4ncccc34)n2)cc1 [UNC10225159A]	43%	17%	20%	0%	16%	0%	0%	0%	0%
Cn1cc(-c2cnc(N)c3c(-c4ccc5c(c4)CCN5C(=O)Cc4ccccc4)csc23)cn1 [UNC10225012A]	0%	0%	0%	19%	0%	18%	4%	0%	28%
